Measured values published in paper PMC12063173, “Metabolic Profiling of a Mediterranean-Inspired (Poly)phenol-Rich Mixture in the Brain: Perfusion Effect and In Vitro Blood–Brain Barrier Transport Validation” (Journal of Agricultural and Food Chemistry, 2025).
Where two headings read alike, the source gives them in different places.

Assays:
[1] = Perfused brain (PB) kinetics of phenolic metabolites after oral capsule; format: in vivo, Sprague–Dawley rats; parameters: AUC0-t PB: concentration or dose not given beside the values; conditions: perfused brain; for half-life: read-out: T1/2 PB (converted)
Description: (§1) Statistical analyses were applied depending on the experimental context.

[2] = Nonperfused brain (NPB) kinetics of phenolic metabolites after oral capsule; format: in vivo, Sprague–Dawley rats; parameters: AUC0-t NPB: concentration or dose not given beside the values; conditions: nonperfused brain, oral capsule, 0-24 h, n = 3 per time point; for Tmax / MRT last / half-life: male, Sprague-Dawley, rat, 22 mg extract blend per capsule, one capsule per animal; for MRT last: read-out: MRT0-t NPB; for half-life: read-out: T1/2 NPB (converted)
Description: as §1

[3] = tested on: human brain microvascular endothelial cells (HBMECs); test: In vitro blood–brain barrier transport (Transwell); format: in vitro ADME; conditions: 2 h; for transport percentage, individual compounds: HBMEC monolayer, lower compartment / total concentration; for transport percentage, individual compounds / transport efficiency in both mixtures and as individual molecules: 2.5 μM; for transport efficiency in both mixtures and as individual molecules / transport efficiency in MIXperc compared with MIXeq: HBMEC; for transport efficiency in MIXperc compared with MIXeq: mixtures at 2.5 μM final
Experimental: The BBB transport model was established using human brain microvascular endothelial cells (HBMECs), following a methodology previously described.[49] Cells were maintained at 37 °C in a humidified environment with 5% CO2. HBMECs were seeded on 12-well Transwell inserts (12 mm, 0.4 μm pore polyester membrane; Corning, Madrid, Spain) and cultured for 6 days to form confluent monolayers suitable for transport studies. Transport assays were carried out in Hanks’ Balanced Salt Solution (HBSS) supplemented with 0.1% fetal bovine serum (FBS, v/v). The cells were exposed on the apical side to individual phenolic metabolites detected in the brain from the animal study, a representative mixture containing equal concentrations of these metabolites, or a physiological mixture reproducing their relative percentages as observed in the brain. All treatments were applied at a final concentration of 2.5 μM for 2 h (Supporting Information, Table S3). The integrity of the cell monolayers was confirmed by measuring transendothelial electrical resistance (TEER) at the start of the experiment (0 h) and after the last time point (2 h) using an EVOM2 Epithelial Volt Ohm Meter (World Precision Instruments, Inc., USA).
Samples from the apical and basolateral compartments were stored at −80 °C for further analysis. Transport of the compounds was evaluated using UPLC-qTOF as described elsewhere,[38] and transendothelial permeability expressed as a percentage of the ratio between the concentration in the basolateral compartment relative to the total concentration in both compartments.
Finally, one-way ANOVA with Tukey’s multiple comparisons test was exclusively applied to in vitro BBB transport experiments. The three tested conditions for each compound (individual compound, a mixture containing equal concentrations of these compounds, or a physiological mixture reproducing their relative percentages as observed in the brain were evaluated. Plots were performed using GraphPad 9.0 (GraphPad Software, Boston, Massachusetts, USA). Statistical significance was set at P < 0.05.
Figure 3 Transport efficiency of phenolic metabolites across the BBB. Human brain microvascular endothelial cells (HBMEC) were seeded onto semipermeable membranes. […] Detailed composition of both mixtures is given in the Supporting Information, Table S3. Media from the upper and lower compartments were collected, and endothelial transport was evaluated by UPLC-qTOF-MS. The transport percentage (%) was determined by the concentration ratio in the lower compartment to the total concentration (upper and lower compartments). All values are presented as mean ± SD from three independent experiments.

[4] = Targeted metabolomics (UPLC-ESI-QTOF) identification of metabolites in plasma, PB and NPB; conditions: P plasma, PB perfused brain, NPB nonperfused brain, 1-24 h after oral capsule
Experimental: Adult male Sprague–Dawley rats weighing 250–300 g were purchased from the Animal Experimentation Service of the University of Murcia (Murcia, Spain). […] Based on the experimental design shown in Figure 1, one capsule was administered by gavage to each fasting animal. A total of 40 animals were used in the study. Thirty animals received a capsule containing a mixture of different Mediterranean food extracts, while ten animals received a capsule with microcrystalline cellulose and served as the control group. […] To minimize animal use in accordance with the 3Rs principle, two control animals were sacrificed at each time point (one PB and one NPB). These controls served to identify potential endogenous compounds or background signals not related to the extract administration. All animals were fasted overnight prior to gavage and euthanized with carbon dioxide.
Plasma samples were extracted with ACN:formic acid (98:2, v/v), centrifuged and evaporated in a speed vacuum concentrator (Savant SPD14 0DDA). The evaporated samples were resuspended in 100 μL MeOH and filtered through 0.22 μm regenerated cellulose filters (Minisart Sartorius, Madrid, Spain). Next, half of the animals at each time point were perfused with ice-cold phosphate-buffered saline, and the blood-free brain was dissected out immediately and stored at – 80 °C until analysis, as previously reported.[37],[48]
Approximately 400 mg of brain tissue (perfused or nonperfused) was weighed and extensively washed with cold PBS to avoid external blood contamination. After weighting, the samples were placed in 2 mL screw cap tubes. […] The evaporated samples were resuspended in 100 μL MeOH and filtered through 0.22 μm regenerated cellulose filters.
We performed a targeted metabolomic analysis using an ultrahigh-performance liquid chromatographic system (UPLC) coupled to a quadrupole-time-of-flight (QTOF) mass spectrometer. The phenolic compounds were separated using an Agilent Poroshell 120 column (100 mm × 3 mm, 2.7 μm) and a 5 μL injection volume. […] The flow rate was set constant at 0.4 mL/min. The spectra were acquired in the m/z range from 100 to 1100, in negative polarity mode and an acquisition rate of 1.5 spectra per second. Quantitative data were processed using the Mass HunterQualitative Analysis software (version B.08.00, Agilent). A target screening strategy was applied for the qualitative analysis of possible metabolites derived from the consumption of the Mediterranean blend. […] These compounds encompass derived metabolites conjugated (glucuronides, sulfates, and sulfoglucuronides, among others). The exact mass of the proposed compound was extracted using an extraction window of 0.01 m/z. Metabolite quantification was performed by integrating the peak areas of their extracted ion chromatograms (EICs). Compounds with available standards were quantified using calibration curves derived from the respective standards, while other metabolites were semiquantified based on their peak area values.

[5] = Plasma pharmacokinetics of phenolic metabolites after oral capsule of (poly)phenol-rich Mediterranean extract mixture; conditions: for AUC0-t plasma / MRT0-t plasma / T1/2 plasma / Tmax plasma: oral capsule, 0-24 h, n = 6 per time point
Experimental: Adult male Sprague–Dawley rats weighing 250–300 g were purchased from the Animal Experimentation Service of the University of Murcia (Murcia, Spain). […] Animals were maintained in a temperature-controlled environment with a 12 h light-dark cycle. […] Based on the experimental design shown in Figure 1, one capsule was administered by gavage to each fasting animal. A total of 40 animals were used in the study. Thirty animals received a capsule containing a mixture of different Mediterranean food extracts, while ten animals received a capsule with microcrystalline cellulose and served as the control group. At each time point (1, 3, 6, 8, and 24 h postadministration), six animals from the extract group were sacrificed, three with transcardial perfusion using saline (PB) and three without perfusion (NPB), to assess the distribution of extract-derived metabolites in plasma and brain. To minimize animal use in accordance with the 3Rs principle, two control animals were sacrificed at each time point (one PB and one NPB). […] All animals were fasted overnight prior to gavage and euthanized with carbon dioxide.
Blood samples collected by cardiac puncture in sodium heparin tubes at each time point after sacrifice were immediately centrifuged at 14,000 × g for 15 min at 4 °C, and the plasma was stored at −80 °C until their analysis. Plasma samples were extracted with ACN:formic acid (98:2, v/v), centrifuged and evaporated in a speed vacuum concentrator (Savant SPD14 0DDA). The evaporated samples were resuspended in 100 μL MeOH and filtered through 0.22 μm regenerated cellulose filters (Minisart Sartorius, Madrid, Spain).
We performed a targeted metabolomic analysis using an ultrahigh-performance liquid chromatographic system (UPLC) coupled to a quadrupole-time-of-flight (QTOF) mass spectrometer. The phenolic compounds were separated using an Agilent Poroshell 120 column (100 mm × 3 mm, 2.7 μm) and a 5 μL injection volume. The mobile phases used were 0.1% formic acid in water (A) and 0.1% formic acid in ACN (B), and the gradient was: 0–3 min, 5–15% B; 3–11 min, 15–30% B; 11–14 min, 30–50% B, 14–16 min, 50–90% B. Finally, the B content was decreased to the initial conditions (5%) in 1 min, and the column re-equilibrated for 4 min. The flow rate was set constant at 0.4 mL/min. The spectra were acquired in the m/z range from 100 to 1100, in negative polarity mode and an acquisition rate of 1.5 spectra per second.

[6] = male, Sprague-Dawley, rat, 22 mg extract blend per capsule, one capsule per animal, oral capsule, 0-24 h, n = 3 per time point
[7] = oral capsule, 0-24 h, n = 3 per time point
[8] = male, Sprague-Dawley, rat, po, 22 mg extract blend per capsule, one capsule per animal
[9] = read-out: Cmax plasma, oral capsule, 0-24 h, n = 6 per time point

Row | SMILES | Tmax [1, 6] [h] | AUC0-t PB [1, 7] [pmol·h/g] | Cmax PB [1, 7] [pmol/g tissue] | Tmax [2] [h] | AUC0-t NPB [2] [pmol·h/g] | Cmax NPB [2] [pmol/g tissue] | transport percentage, individual compounds [3] | transport efficiency in both mixtures and as individual molecules [3] | occurrence [4] | MRT0-t PB [1, 7] [h] | T1/2 PB [1, 7] [h] | Tmax PB [1, 7] [h] | Tmax NPB [2] [h] | AUC0-t plasma [5] [µM·h] | MRT0-t plasma [5] [h] | T1/2 plasma [5] [h] | Tmax plasma [5] [h] | Cmax [5, 9] [nM] | MRT0-t NPB [2] [h] | T1/2 NPB [2] [h] | other results
1 | O=C(O)CCc1cccc(O)c1 [3-(3-hydroxyphenyl) propionic acid] | 3.3 ± 2.5 | 11 ± 6.8 | 1.0 ± 0.5 | 7.5 ± 3.1 | 13 ± 11 | 4.0 ± 3.6 | exceeding 20% | relatively consistent transport efficiencies | PB, NPB, P |  |  |  |  |  |  |  |  |  |  |  | MRT last ([1]; male, Sprague-Dawley, rat, 22 mg extract blend per capsule, one capsule per animal, oral capsule, 0-24 h, n = 3 per time point, read-out: MRT0-t PB): 11 ± 6.9 h; half-life [1, 6]: 11 ± 6.9 h; MRT last [2]: 11 ± 4.1 h; half-life [2]: 20 ± 15 h; occurrence ([4]; listed as 3-(3-hydroxyphenyl)propionic acid): consistently detected in plasma and brain at all time points; AUC(0-t) [5, 8]: 0.481 ± 0.353 µM·h; Cmax [5, 8]: 39 ± 20 nM; MRT last [5, 8]: 9.77 h; Tmax [5, 8]: 13 ± 11 h; half-life [5, 8]: 6.9 h
2 | O=C(O)CCCCc1cccc(O)c1 [5-(3-hydroxyphenyl)-valeric acid] | 2 ± 1.2 | 30 ± 6.5 | 2.4 ± 0.8 | 2.3 ± 1.2 | 33 ± 4.8 | 3.4 ± 0.7 |  |  | PB, NPB, P |  |  |  |  |  |  |  |  |  |  |  | half-life [1, 6]: 39 ± 19 h; MRT last [2]: 102 ± 62 h; half-life [2]: 70 ± 46 h; transport efficiency in MIXperc compared with MIXeq [3]: lower transport percentages; occurrence ([4]; listed as 5-(3-hydroxyphenyl)valeric acid): consistently detected in plasma and brain at all time points; concentration in plasma (approximate) [5]: approximately 5 nM; AUC(0-t) [5, 8]: 0.055 ± 0.011 µM·h; Cmax [5, 8]: 4.8 ± 1.9 nM; MRT last [5, 8]: 43 ± 45 h; Tmax [5, 8]: 7.4 ± 9.5 h; half-life [5, 8]: 29 ± 32 h
3 | O=C(O)C=Cc1ccc(O)c(OS(=O)(=O)O)c1 [caffeic acid 3-O-sulfate] |  | 4.7 ± 1.8 | 1.0 ± 0.7 |  | 3.32 | 0.24 | exceeding 20% | relatively consistent transport efficiencies | PB, NPB, P | 8.7 ± 7.3 | 5.2 ± 5.7 | 3.0 ± 0.1 | 3.00 | 0.282 ± 0.332 | 13 ± 8.8 | 8.3 ± 4.9 | 8.6 ± 8.9 | 22 ± 21 |  |  | 
4 | O=C(O)CCc1ccc(O)c(O)c1 [dihydrocaffeic acid] | 4.5 ± 5 | 11 ± 2.8 | 0.7 ± 0.3 | 24 | 18 ± 1 | 0.9 ± 0.1 | < 5% |  | PB, NPB, P |  |  |  |  |  |  |  |  |  |  |  | occurrence ([4]; listed as 3-(3,4-dihydroxyphenyl)propionic acid): consistently detected in plasma and brain at all time points; AUC(0-t) [5, 8]: 0.127 ± 0.031 µM·h; Cmax [5, 8]: 16 ± 8.6 nM; MRT last [5, 8]: 86 ± 138 h; Tmax [5, 8]: 2.6 ± 0.9 h; half-life [5, 8]: 61 ± 94 h
5 | O=C(O)[C@H]1O[C@@H](Oc2cc(O)cc(CCc3ccc(O)cc3)c2)[C@H](O)[C@@H](O)[C@@H]1O [dihydroresveratrol 3-O-glucuronide] |  | 1.3 ± 0.7 | 0.4 ± 0.1 |  | 5.3 ± 2.8 | 0.5 ± 0.1 |  |  | PB, NPB, P | 23 ± 26 | 15 ± 18 | 3.3 ± 2.1 | 6.7 ± 1.2 | 0.993 ± 0.558 | 14 ± 5.8 | 8.1 ± 3.2 | 6.2 ± 2.1 | 93 ± 45 | 44 ± 1 | 27 ± 1 | transport efficiency in MIXperc compared with MIXeq [3]: significantly higher transport efficiencies
6 | O=S(=O)(O)Oc1cc(CCO)ccc1O [hydroxytyrosol 3-O-sulfate] |  | 16 ± 7.8 | 3.4 ± 3.1 |  | 60 ± 8.4 | 9.7 ± 5.7 |  |  | PB, NPB, P | 11 ± 5.9 | 7.3 ± 3.6 | 2.7 ± 2.9 | 3.0 ± 0.0 | 1.432 ± 0.648 | 4.3 ± 1.0 | 4.0 ± 2.3 | 1.4 ± 0.9 | 303 ± 45 | 7.1 ± 3.1 | 7.0 ± 0.7 | occurrence ([4]; listed as hydroxytyrosol 3-sulfate): identified in plasma, perfused brain (PB), and nonperfused brain (NPB)
7 | O=S(=O)(O)Oc1ccc(CCO)cc1O [hydroxytyrosol 4′-O-sulfate] |  | 52 ± 30 | 4.8 ± 1.5 |  | 84 ± 22 | 6.3 ± 2.6 |  |  | PB, NPB, P | 18 ± 14 | 12 ± 8.9 | 2.3 ± 2.5 | 2.3 ± 1.2 | 0.793 ± 0.403 | 3.4 ± 0.5 | 3.0 ± 0.6 | 1 ± 0 | 192 ± 76 | 26 ± 22 | 18 ± 14 | occurrence ([4]; listed as hydroxytyrosol 4′-sulfate): identified in plasma, perfused brain (PB), and nonperfused brain (NPB)
8 | O=C(O)C=Cc1ccc(OS(=O)(=O)O)cc1 [p-coumaric acid 4-O-sulfate] |  |  | 2.8 ± 2.4 |  | 1.6 ± 0.6 | 0.2 ± 0.1 | exceeding 20% | relatively consistent transport efficiencies | PB, NPB, P | 30 ± 20 | 23.85 | 19 ± 12 | 3.0 ± 0.0 | 0.293 ± 0.154 | 45 ± 37 | 33 ± 28 | 3.6 ± 2.6 | 44 ± 47 |  |  | PB concentration relative to ferulic acid 4-O-sulfate [1]: 14 fold
9 | O=S(=O)(O)Oc1ccc(CCO)cc1 [tyrosol 4-O-sulfate] |  | 0.9 ± 1.3 | 0.1 ± 0.08 |  | 31 ± 43 | 4.7 ± 6.1 |  |  | PB, NPB, P |  |  | 2.3 ± 3.2 | 2.0 ± 1.4 | 0.122 ± 0.116 | 7.15 ± 3.3 | 6.5 ± 1.8 | 1 ± 0 | 20 ± 30 | 7.4 ± 0.4 | 4.5 ± 1.1 | occurrence ([4]; listed as tyrosol 4-sulfate): identified in plasma, perfused brain (PB), and nonperfused brain (NPB)
